Test results as given in US20130131034A1, “DERIVATIVES OF AMINOINDANES, THEIR PREPARATION AND THEIR APPLICATION IN THERAPEUTICS” (SANOFI, priority 2010, published 2013).
Counter-ions that a name gives are not always drawn.

SMILES | melting point [°C]
CS(=O)(=O)c1ccc2c(c1)[C@@H](Oc1ccc(C#N)cc1Cl)[C@H](N1CCC[C@@H](N)C1)C2 (as salt: HCl) [Compound 123, 4-{[(1R,2R)-2-[(3R)-3-aminopiperidin-1-yl]-6-(methylsulfonyl)-2,3-dihydro-1H-inden-1-yl]oxy}-3-chlorobenzonitrile] | 162
CC(C)(N)C1CN([C@@H]2Cc3ccccc3[C@H]2Oc2ccc(C#N)cc2Cl)C1 (as salt: HCl) [Compound 125, 4-({(1R,2R)-2-[3-(2-aminopropan-2-yl)azetidin-1-yl]-2,3-dihydro-1H-inden-1-yl}oxy)-3-chlorobenzonitrile] | 93
COc1ccc2c(c1)[C@@H](Oc1ccc3c(c1)CCC(=O)N3)[C@H](N1CCC[C@@H](N)C1)C2 (as salt: HCl) [Compound 131, 6-({(1R,2R)-2-[(3R)-3-aminopiperidin-1-yl]-6-methoxy-2,3-dihydro-1H-inden-1-yl}oxy)-3,4-dihydroquinolin-2(1H)-one] | 145.6
N[C@@H]1CCCN([C@@H]2Cc3ccccc3[C@H]2Oc2cc3c(cc2Cl)NC(=O)CC3)C1 (as salt: HCl) [Compound 132, 6-({(1R,2R)-2-[(3R)-3-aminopiperidin-1-yl]-2,3-dihydro-1H-inden-1-yl}oxy)-7-chloro-3,4-dihydroquinolin-2(1H)-one] | 183.7
N#Cc1ccc(O[C@@H]2c3cccnc3C[C@H]2N2CCC[C@@H](N)C2)c(Cl)c1 (as salt: HCl) [Compound 137, 4-({(5R,6R)-6-[(3R)-3-aminopiperidin-1-yl]-6,7-dihydro-5H-cyclopenta[b]pyridin-5-yl}oxy)-3-chlorobenzonitrile] | 172
N#Cc1ccc(O[C@@H]2c3ncccc3C[C@H]2N2CCC[C@@H](N)C2)c(Cl)c1 (as salt: HCl) [Compound 138, 4-({(6R,7S)-6-[(3R)-3-aminopiperidin-1-yl]-6,7-dihydro-5H-cyclopenta[b]pyridin-7-yl}oxy)-3-chlorobenzonitrile] | 180
